Among the data in patent US4512924A, “Pyridazo[1,2-a][1,2]diazepines” (Hoffmann-La Roche Inc., priority 1982, dated 1985) are IC50 values, retold here.

Each structure is given as a SMILES string.

For this experiment, the target named is T1, angiotensin converting enzyme (Oryctolagus cuniculus, UniProt P12822).
T1 sequence (P12822 34-1310): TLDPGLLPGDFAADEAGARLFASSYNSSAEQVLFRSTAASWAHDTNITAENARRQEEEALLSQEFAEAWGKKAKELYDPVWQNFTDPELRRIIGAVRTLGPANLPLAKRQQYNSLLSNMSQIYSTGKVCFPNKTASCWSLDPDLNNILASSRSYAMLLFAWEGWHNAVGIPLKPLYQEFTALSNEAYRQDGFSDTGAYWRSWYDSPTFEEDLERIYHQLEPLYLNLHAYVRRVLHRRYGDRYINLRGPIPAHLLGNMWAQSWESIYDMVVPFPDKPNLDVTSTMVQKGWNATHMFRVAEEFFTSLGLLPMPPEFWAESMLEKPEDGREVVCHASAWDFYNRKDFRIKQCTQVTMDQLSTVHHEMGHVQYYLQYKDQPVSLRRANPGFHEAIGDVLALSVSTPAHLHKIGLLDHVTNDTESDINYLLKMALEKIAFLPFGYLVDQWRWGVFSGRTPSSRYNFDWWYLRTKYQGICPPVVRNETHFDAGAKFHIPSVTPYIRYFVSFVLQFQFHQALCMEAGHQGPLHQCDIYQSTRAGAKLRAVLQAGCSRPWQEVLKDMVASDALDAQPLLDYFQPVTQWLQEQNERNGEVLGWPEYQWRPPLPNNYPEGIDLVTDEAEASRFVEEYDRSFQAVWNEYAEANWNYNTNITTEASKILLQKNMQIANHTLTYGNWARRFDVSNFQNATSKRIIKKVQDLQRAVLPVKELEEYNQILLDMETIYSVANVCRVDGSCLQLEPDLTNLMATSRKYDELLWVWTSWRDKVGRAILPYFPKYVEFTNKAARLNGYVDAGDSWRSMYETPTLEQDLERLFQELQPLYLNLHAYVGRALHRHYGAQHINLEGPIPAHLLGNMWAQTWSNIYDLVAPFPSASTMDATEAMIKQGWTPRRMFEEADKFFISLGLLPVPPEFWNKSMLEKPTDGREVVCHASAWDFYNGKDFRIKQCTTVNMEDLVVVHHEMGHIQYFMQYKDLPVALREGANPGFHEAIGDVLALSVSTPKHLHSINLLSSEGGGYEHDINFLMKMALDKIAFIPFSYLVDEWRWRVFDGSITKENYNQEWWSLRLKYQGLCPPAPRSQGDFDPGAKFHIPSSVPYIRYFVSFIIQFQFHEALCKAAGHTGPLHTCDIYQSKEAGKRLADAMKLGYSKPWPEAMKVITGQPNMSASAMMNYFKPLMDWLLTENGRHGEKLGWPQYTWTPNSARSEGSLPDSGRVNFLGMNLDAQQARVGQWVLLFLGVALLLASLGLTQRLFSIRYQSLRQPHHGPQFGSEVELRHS
The experiment can be described thus: in vitro inhibition of angiotensin converting enzyme (cleavage of hippuryl-histidyl-leucine). Type of experiment: biochemical. The following applies: hippuryl-histidyl-leucine 2 mM, potassium phosphate buffer pH 8.3, 100 mM, NaCl 300 mM, 24 minutes at 37° C., read-out: IC50 (concentration of test substance which reduces by 50% the cleavage of hippuryl-histidyl-leucine by angiotensin converting enzyme). On the procedure:
The activity of the present compounds in inhibiting angiotensin converting enzyme in vitro can be determined by the following test.
The method used is based on the method of Cushman and Cheung (Biochem. Pharmacol., 20. 1637-1648) incorporating the modifications introduced by Hayakari et al (Anal. Biochem., 84. 361-369). The substrate (hippuryl-histidyl-leucine, 2 mM) is incubated with angiotensin converting enzyme in the presence or absence of various concentrations of test substance in potassium phosphate buffer (pH 8.3; 100 mM) containing sodium chloride (300 mM) for 24 minutes at 37° C. (total value 500 μl). (If the test substance is an ester, it is appropriate to cleave it by means of hog liver esterase before carrying out the test). The reaction is terminated by the addition of 3 ml of potassium phosphate buffer (pH 8.3; 200 mM) at 0° C. 2,4,6-Trichloro-s-triazine (3%) in 1.5 ml of dioxane is added and the mixture is agitated until the yellow chromophore has developed fully. The samples are then centrifuged to remove any precipitate which has formed. The yellow chromophore formed by the reaction of the 2,4,6-trichloro-s-triazine with free hippuric acid is measured spectrophotometrically at 382 nm. IC50 values are defined as the concentration of test substance which reduces by 50% the cleavage of hippuryl-histidyl-leucine by angiotensin converting enzyme under the aforementioned conditions.
The results obtained in the foregoing test using representative compounds of formula I as the test substance are compiled in the following Table.

For `O=C(O)C(CCc1ccccc1)N[C@H]1CCC(=O)N2CCC[C@@H](C(=O)O)N2C1=O` (single isomer, unassigned) [Compound A], the IC50 worked out at 4.2 nM.

As for `O=C(O)C(CCc1ccccc1)NC1CCN2CCCC(C(=O)O)N2C1=O` (racemic) [Compound C, 8-(1-Carboxy-3-phenylpropylamino)-octahydro-9-oxopyridazo[1,2-a]pyridazine-1-carboxylic acid], the IC50 is 55 nM.

As to `O=C(O)C(CCc1ccccc1)N[C@H]1CC(=O)N2CCCC(C(=O)O)N2C1=O` (single isomer, unassigned) [Compound B], the IC50 is 22 nM.

With `O=C(O)C(Cc1ccccc1)N[C@H]1CCC(=O)N2CCC[C@@H](C(=O)O)N2C1=O` (mixture of isomers) [Compound E, 9(S)-[1(R and S)-carboxy-2-phenylethylamino]-octahydro-6,10-dioxo-6H-pyridazo[1,2-a][1,2]diazepine-1(S)-carboxylic acid], the IC50 is 26 nM.

Regarding `CC(C)CCC(N[C@H]1CCC(=O)N2CCC[C@@H](C(=O)O)N2C1=O)C(=O)O` (mixture of isomers) [Compound F, 9(S)-[1(R and S)-carboxy-4-methylpentylamino]-octahydro-6,10-dioxo-6H-pyridazo[1,2-a][1,2]diazepine-1(S)-carboxylic acid], the IC50 was found to be 12 nM.

For `O=C(O)C(CCCc1ccccc1)N[C@H]1CCC(=O)N2CCC[C@@H](C(=O)O)N2C1=O` (mixture of isomers) [Compound D, 9(S)-[1(R and S)-carboxy-4-phenylbutylamino]-octahydro-6,10-dioxo-6H-pyridazo[1,2-a][1,2]diazepine-1(S)-carboxylic acid], the IC50 is 11 nM.
